In paper PMC8389922, “First-in-Class Cyclic Temporin L Analogue: Design, Synthesis, and Antimicrobial Assessment” (Journal of Medicinal Chemistry, 2021):
Converted amounts (≈) assume the structure as drawn. Bridge positions count the residues as written; N and C are the ends. Square brackets hold non-standard residues; d marks the D form. Peptide text beside a SMILES is read from it.

Assays:
P. aeruginosa ATCC 27853 = type: cell-based, Pseudomonas aeruginosa
Description: (§1) The antimicrobial activity of peptides 9–26 was assessed against a range of reference bacterial strains such as S. aureus ATCC 25923, Staphylococcus epidermidis ATCC 12228, Bacillus megaterium Bm11, E. coli ATCC 25922, P. aeruginosa ATCC 27853, and A. baumannii ATCC 19606 by the broth microdilution assay to determine the minimal growth inhibitory concentration (MIC, Table 1).[59] First, we evaluated the effects produced by the lactam bridge between Lys and Glu residues placed at different positions along the peptide sequence of reference 9. […] When the i,i+7 cyclization strategy was applied (20–23), a dramatic decrease of bacterial inhibition activity was observed. Specifically, the peptides 20, 22, and 23 only affected the microbial growth of the Gram-positive B. megaterium Bm11, at 12.5 μM. […] Peptide 25, which differs from 9 by the presence of an olefin bridge rather than lactam one, dramatically lost the activity (MIC > 100 μM) vs both Gram-positive and Gram-negative strains.
(§2) The determination of MICs was conducted as previously reported.[61] Aliquots of 50 μL of bacterial culture appropriately diluted were added to each well of a 96-well plate to reach a final cell density of 1 × 10^6 CFU/mL and a final peptide concentration ranging from 100 to 0.78 μM (final volume 100 μL).

[1] = tested on: S. epidermidis ATCC 12228; type: cell-based, Staphylococcus epidermidis
Description: as §1, §2

[2] = CD spectroscopy, secondary structure content (DichroWeb); type: physicochemical
Description: The secondary structures of the linear peptide 9 and its stapled analogues 12, 17, and 24–26 were explored by circular dichroism (CD). CD spectroscopy studies were performed in water, and SDS or DPC micelles (20 mM) were used as mimics of the bacterial or mammalian membranes, respectively.[60]
The secondary structure content was predicted based on the CD spectra from 190 to 260 nm using the online server for protein secondary structure analyses, DichroWeb.[61] […] The hydrocarbon-bridged peptide 25 was slightly helical and structured in water, with weak ellipticity at 220 nm. Peptide 25 contains ∼13% regular helix and ∼10% distorted helix, according to the DichroWeb prediction.
All spectra were measured in the 260–190 nm spectral range, 1 nm bandwidth, 4 accumulations, and 100 nm/min scanning speed.[60] Each peptide was dissolved in water to prepare a 1 mM peptide stock solution. The CD spectra were performed in water, in SDS (20 mM) and in DPC (20 mM) using a peptide concentration of 50 μM. The secondary structure content of the peptides was predicted using the online server for protein secondary structure analyses DichroWeb.[61] Input and output units and the wavelength step were θ (mdeg) and 1.0 nm, respectively. The algorithm used was CONTIN-LL,[83] and reference database was set-7. When we have NRMSD > 0.100, we used the CDSSTR method.[83]

E. coli ATCC 25922 = type: cell-based, Escherichia coli
Description: as §1, §2

B. megaterium Bm11 = type: cell-based, Bacillus megaterium
Description: as §1, §2

circular dichroism = details: water; pH ns; 25 °C; 50 uM
S. aureus ATCC 25923 = type: cell-based, Staphylococcus aureus
Description: as §1, §2

A. baumannii ATCC 19606 = type: cell-based, Acinetobacter baumannii
Description: as §1, §2

[3] = tested on: HaCaT cells (human immortalized keratinocytes); assay: Cytotoxicity, MTT assay; type: cell-based; details: vs untreated control
Description: In particular, the cytotoxicity was evaluated by the 3-(4,5-dimethylthiazol-2-yl)-2,5-diphenyltetrazolium bromide (MTT) assay and is expressed as the percentage of viability of peptide-treated cells compared to that of untreated control cells. As expected, after 2 and 24 h treatments, the cell viability decreased in a concentration-dependent manner for all peptides (Figure 2).
Figure 2 Viability of peptide-treated HaCaT cells evaluated by MTT assay at 2 h (a) and 24 h (b). All data are expressed as a percentage with respect to the untreated control cells and are the mean of three independent experiments ± standard error of the mean (SEM).
The human immortalized keratinocytes HaCaT cells (AddexBio, San Diego, CA) were cultured in Dulbecco’s modified Eagle’s medium containing 4 mM glutamine (DMEMg), supplemented with 10% heat-inactivated fetal bovine serum (FBS) and 0.1 mg/mL of penicillin and streptomycin, at 37 °C and 5% CO2, in 25 or 75 cm^2 flasks.
The quantification of cell viability was performed by the in vitro MTT [3-(4,5-dimethylthiazol-2-yl)-2,5-diphenyltetrazolium bromide] assay, as previously reported,[77] measuring the conversion of the soluble yellow dye MTT to insoluble purple formazan by mitochondrial dehydrogenases. More precisely, 4 × 10^4 HaCaT cells, suspended in DMEMg supplemented with 2% FBS without antibiotics, were plated in each well of the 96-well plate. After overnight incubation at 37 °C and 5% CO2, the medium of each well was replaced by DMEMg containing the peptide at different concentrations, as indicated. Controls were HaCaT cells not treated with the peptide. After 2 and 24 h of incubation at 37 °C and 5% CO2, the medium was discarded; 0.5 mg/mL of MTT in Hank’s buffer was added to each well, and the plate was incubated for further 4 h. Acidified isopropanol was then added to dissolve formazan crystals, and the absorbance of each well at 570 nm was measured using a microplate reader (Infinite M200; Tecan, Salzburg, Austria). The purple color intensity is directly proportional to the number of viable cells, which was expressed as a percentage compared to that of untreated control cells (100%).

[4] = CD in DPC micelles (20 mM), peptide 50 μM, 25 °C, DichroWeb
[5] = CD in SDS micelles (20 mM), peptide 50 μM, 25 °C, DichroWeb
[6] = CD in water, peptide 50 μM, 25 °C, DichroWeb
[7] = CD in water, peptide 50 μM, 25 °C, DichroWeb (CONTIN-LL, set-7; CDSSTR if NRMSD > 0.100)

| Structure (SMILES) | MIC P. aeruginosa ATCC 27853 (P. aeruginosa ATCC 27853) [µM] | MIC S. epidermidis ATCC 12228 [1] [µM] | helix-1 (regular α-helix) [2, 4] [%] | helix-2 (distorted α-helix) [2, 4] [%] | random [2, 4] [%] | β-strand-1 (regular β-strand) [2, 4] [%] | β-strand-2 (distorted β-strand) [2, 4] [%] | β-turn [2, 4] [%] | helix-1 (regular α-helix) [2, 5] [%] | helix-2 (distorted α-helix) [2, 5] [%] | random [2, 5] [%] | β-strand-1 (regular β-strand) [2, 5] [%] | β-strand-2 (distorted β-strand) [2, 5] [%] | β-turn [2, 5] [%] | helix-2 (distorted α-helix) [2, 6] [%] | random [2, 6] [%] | β-strand-1 (regular β-strand) [2, 6] [%] | β-strand-2 (distorted β-strand) [2, 6] [%] | β-turn [2, 6] [%] | helix-1 (regular α-helix) [2, 7] [%] | further results |
| --- | --- | --- | --- | --- | --- | --- | --- | --- | --- | --- | --- | --- | --- | --- | --- | --- | --- | --- | --- | --- | --- |
| CC[C@H](C)[C@H](NC(=O)[C@H](CCCNC(=N)N)NC(=O)[C@@H]1CCCCNC(=O)CC[C@H](NC(=O)[C@H](Cc2ccccc2)NC(=O)[C@H](Cc2c[nH]c3ccccc23)NC(=O)[C@@H]2CCCN2C(=O)[C@@H](NC(=O)[C@@H](N)Cc2ccccc2)C(C)C)C(=O)N[C@@H](CCCCN)C(=O)N[C@@H](Cc2ccccc2)C(=O)N[C@H](CC(C)C)C(=O)N1)C(=O)N[C@@H](CC(C)C)C(N)=O [compound 24] (H-FVPWFEKF[dL]KRIL-NH2; lactam 6-10) | >100 | 1.56 (≈ 2.66 µg/mL) | 69 | 23 | 0 | 0 | 3 | 4 | 59 | 18 | 0 | 11 | 5 | 7 | 6 | 50 | 16 | 9 | 17 | 1 | helix percentage (total) in SDS solution ([2]; CD in SDS micelles (20 mM), DichroWeb, regular plus distorted helix): about 80%; MIC E. coli ATCC 25922 (E. coli ATCC 25922): 25 µM (≈ 42.6 µg/mL); MIC B. megaterium Bm11 (B. megaterium Bm11): 1.56 µM (≈ 2.66 µg/mL); helicity (circular dichroism): 7%; MIC S. aureus ATCC 25923 (S. aureus ATCC 25923): 3.12 µM (≈ 5.32 µg/mL); MIC A. baumannii ATCC 19606 (A. baumannii ATCC 19606): 3.12 µM (≈ 5.32 µg/mL); HaCaT cell viability ([3]; 2 h treatment, 25 μM, mean of three independent experiments): 60–70%; HaCaT cell viability ([3]; 2 h treatment, 50 μM, mean of three independent experiments): less than 40%; HaCaT cell viability ([3]; 24 h treatment (sentence continues from 50 μM)): less than 20% |
| CC[C@H](C)[C@H](NC(=O)[C@H](CCCNC(=N)N)NC(=O)[C@]1(C)CCCC=CCCC[C@](C)(NC(=O)[C@H](Cc2ccccc2)NC(=O)[C@H](Cc2c[nH]c3ccccc23)NC(=O)[C@@H]2CCCN2C(=O)[C@@H](NC(=O)[C@@H](N)Cc2ccccc2)C(C)C)C(=O)N[C@@H](CCCCN)C(=O)N[C@@H](Cc2ccccc2)C(=O)N[C@H](CC(C)C)C(=O)N1)C(=O)N[C@@H](CC(C)C)C(N)=O [compound 25] | >100 | >100 | 54 | 34 | 0 | 0 | 7 | 5 | 41 | 22 | 28 | 0 | 4 | 5 | 10 | 41 | 12 | 8 | 16 | 13 | aggregation in water (shape of CD spectrum) ([2]; CD in water, peptide 50 μM, 25 °C): form α-helical aggregates; MIC E. coli ATCC 25922 (E. coli ATCC 25922): >100 µM; MIC B. megaterium Bm11 (B. megaterium Bm11): 100 µM (≈ 172 µg/mL); helicity (circular dichroism): 23%; MIC S. aureus ATCC 25923 (S. aureus ATCC 25923): >100 µM; MIC A. baumannii ATCC 19606 (A. baumannii ATCC 19606): >100 µM |
